# According to patent US9725430B2, “Use of small molecule inhibitors targeting EYA tyrosine phosphatase” (Children's Hospital Medical Center, priority 2013, dated 2017):
# Key:
# retinal vasculature = assay: Post-natal retinal angiogenesis in mice; assay type: in vivo
# Experimental: Next, retinal blood vessel density and angiogenic extension were studied using induced deletion of Eya3 in mice by PDGFB-icreERT2 starting at the day of birth. Isolectin labeled retinal blood vessels at postnatal day 5 in control Eya3fl/fl (FIGS. 8b and 8d) and experimental Eya3fl/fl; PDGFB-icreERT2 (FIGS. […]) mice. FIGS. 8d and 8e are magnified images of the regions indicated in 8b and 8c, respectively.
# Next, treatment with an inhibitor of Eya3 was performed to test the effect on post-natal retinal angiogenesis. Briefly, 100 μM of compound 1a was injected into the eyes of post-natal mice, at P0.5 and P3. P5 retinas were then analyzed for effects on the retinal vasculature.
# Eya3(ED) = Eya3(ED) (Mus musculus (Mouse), UniProt P97480); assay: p-nitrophenylphosphate (pNPP) assay, catalytic domain of Eya3; assay type: biochemical; conditions: pNPP substrate
# Description: The catalytic domain of mouse Eya3 (“ED”, comprising residues 223-510 of Eya3) was purified as described by Rayapureddi, J. P. et al. (FEBS Lett 580, 3853-3859 (2006), incorporated by reference in its entirety). For full-length Eya3 (“hEYA3”), human Eya3 isoform 2 (representing the major species identified in human cell lines by mass spectrometry, expressed as residues 127-573 of NM_001990, isoform 1) was sub-cloned into pDEST565 to express a poly-histidine-Glutathione-S-transferase (His-GST) tagged fusion protein with a TVMV protease site. The protein was purified by glutathione-S-transferase affinity chromatography followed by TVMV cleavage, Ni-NTA chromatography, and finally size exclusion chromatography.
# An inhibitory assay was conducted using the previously described p-nitrophenylphosphate assay (Rayapureddi, J. P. et al. Nature 426, 295-298 (2003)). Briefly, ED was incubated in a reaction mixture containing 20 mM MES pH 6, 2 mM MgCl2, 125 μM inhibitor, 3.4 mM para-nitrophenol phosphate (pNPP) and 0.01 μg/μL enzyme.
# The compounds were then tested using full-length human recombinant, purified EYA3 and pNPP as a substrate. Compounds were dissolved in DMSO and diluted as needed. […] Reactions were incubated at 30° C. for 30 minutes and quenched with 100 mM EDTA pH 10. IC50 values were then calculated directly from regression curves using PRISM software. […]
# [1] = system: developing zebrafish vasculature; assay: Zebrafish model of angiogenesis; assay type: in vivo; conditions: exposure from 5.25 hpf, analysis at 24 hpf; compound 1 at 0.25 μM
# Experimental: Embryos (FLK1-GFP trangenic) were maintained in fish water until the 50% epiboly stage (5.25 hpf) and were transferred into wells of 24-well plate containing the inhibitors in fish water. The analysis for vascular defects was performed after the 24 hpf stage, and embryos were imaged using a fluorescence microscope.
# Transgenic fish expressing EGFP in endothelial cells (Tg(flk1:EGFP)) were used to facilitate visualization of the developing vasculature. In control experiments embryos were treated with 0.1% DMSO (vehicle). At the time of analyses (24 hpf) developing vessels normally migrated from the lateral plate mesoderm to the midline and formed the vascular cord, subsequently forming the dorsal aorta and the posterior cardinal vein and followed by the formation of intersegmental vessels at designated branch points (FIG. 6b).
# mouse aortic rings = assay: Aortic ring sprouting assay; assay type: cell-based; conditions: 5 μM, 10 days
# Experimental: Additionally, the effect of compounds 1d, 1f, 1h, 1i, 1g, 2 and 2a on cell proliferation, migration, tube formation, micro-vessel branching, and perivascular recruitment using an aortic ring sprouting assay. When slices of mouse aorta are cultured in collagen gels there is typically a lag phase for the first 4 days followed by linear sprouting of endothelial cells. By day 6, branching is observed. All the test compounds were initially assayed at 7.5 μM and the number of branch-points counted. When there was a severe effect (no visible sprouting), or when there was no apparent effect, other doses were tested to establish a dose-dependence. All of the compounds assayed were able to attenuate aortic ring sprouting. There was a strong reduction in initial sprouting and some attenuation of branching. With the exception of 2a, in all cases where there was sprouting, the length of sprouts was shorter than in the controls.
# Endothelial cell migration can also be studied […] using the aortic ring assay in which sprouting angiogenesis is monitored by the formation of vascular sprouts outside the wall of mouse aortic rings incubated in collagen matrix and stimulated by VEGF (Gerhardt, H., et al. EXS, 3-15 (2005), hereby incorporated by reference in its entirety). Briefly, mice were obtained from the Cincinnati Children's veterinary service and handled according to the institutional animal care and use protocol. […] Mice were 4 to 6 weeks old female C57BL16, and aortic ring explants were cultured at 37° C. in a humidified incubator under a 5% CO2 atmosphere.
# Each inhibitor was serially diluted (between 0.25 mM and 7.5 mM) to stocks of 1000× the working concentrations in sterile 100% DMSO in order to achieve an equal final concentration of DMSO (0.1% v/v) in all culture conditions. For the experiments, the compounds were diluted in EBM containing 2.5% FBS, penicillin/streptomycin and 20 ng/ml VEGF165 (R&D Systems, Minneapolis, Minn.). Each compound was applied from the first day of culture over a 10-day period with medium change every two days. In all experiments, the vehicle (DMSO, 0.1%) was used as control. The sprouting density was derived from counting the number of branches per ring, and the extent of angiogenic sprouting was estimated by measuring the total surface area covered by the vessels as illustrated in FIG. 7.
# [2] = system: A673 (Ewings sarcoma) cells; assay: Mouse xenograft model of Ewings sarcoma; assay type: in vivo, nude mice; conditions: intra-peritoneal 25 mg/kg/day or intra-tumor
# Experimental: The affect of EYA inhibitors on a mouse xenograft model of Ewings sarcoma was tested. 5×10^6 A673 (Ewings sarcoma) cells in 0.1 ml sterile matrigel were injected subcutaneously into the dorsal flank region of nude mice. Approximately 5 days after injection, the tumors were about 100-300 mm^3. […] The dose for intra-peritoneal injections was 25 mg/kg/day. The tumor size was monitored every other day. Animals were sacrificed after 2 weeks, or when tumor volume approached 10% of animal weight.
# EYA3-SIX2 interaction = EYA3-SIX2 interaction (Homo sapiens (Human), UniProt Q99504); assay: His-SIX2 pull-down of EYA3 on Ni-NTA; assay type: binding; conditions: 50 μM compound, 15 minutes
# Description: Each point represents the mean and standard deviation of two independent readings. (C) Plots of Vmax and Km as a function of inhibitor concentration. […] The mixture was loaded on a Ni-NTA column. Beads were washed with 3 column volumes of load buffer (last washes, lanes 2 and 6). Proteins retained on the beads are shown in lanes 3 and 7. Lanes 4 and 8 are molecular weight markers.
# One function of the catalytic domain of the EYAs is to mediate its interaction with the SIX proteins. This complex then translocates to the nucleus where the SIX-EYA complex can activate transcription.
# Eya3(ED), sequence (P97480 223-510): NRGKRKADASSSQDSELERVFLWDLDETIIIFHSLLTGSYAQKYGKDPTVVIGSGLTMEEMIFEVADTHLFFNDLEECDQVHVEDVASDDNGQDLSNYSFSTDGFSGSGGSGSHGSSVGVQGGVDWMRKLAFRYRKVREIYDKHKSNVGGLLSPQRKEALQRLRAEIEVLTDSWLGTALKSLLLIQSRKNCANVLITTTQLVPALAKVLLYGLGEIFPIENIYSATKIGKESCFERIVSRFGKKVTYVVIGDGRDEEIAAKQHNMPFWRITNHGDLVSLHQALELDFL
# EYA3-SIX2 interaction, sequence (Q99504 whole entry, looked up): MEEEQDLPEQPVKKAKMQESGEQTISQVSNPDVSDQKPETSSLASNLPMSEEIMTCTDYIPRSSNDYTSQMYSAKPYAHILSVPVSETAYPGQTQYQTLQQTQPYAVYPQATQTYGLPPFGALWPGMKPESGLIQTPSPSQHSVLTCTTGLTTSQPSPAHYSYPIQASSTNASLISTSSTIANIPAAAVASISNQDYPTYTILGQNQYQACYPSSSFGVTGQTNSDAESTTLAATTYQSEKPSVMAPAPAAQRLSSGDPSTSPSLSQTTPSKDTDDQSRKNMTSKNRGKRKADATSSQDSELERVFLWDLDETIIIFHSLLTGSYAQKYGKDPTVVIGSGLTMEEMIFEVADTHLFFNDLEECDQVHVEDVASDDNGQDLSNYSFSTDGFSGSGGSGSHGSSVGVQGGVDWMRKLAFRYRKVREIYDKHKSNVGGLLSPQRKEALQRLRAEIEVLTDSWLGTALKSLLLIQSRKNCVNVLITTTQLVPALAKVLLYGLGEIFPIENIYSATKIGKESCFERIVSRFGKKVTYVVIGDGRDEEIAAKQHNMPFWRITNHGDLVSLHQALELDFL
# EYA3-SIX2 interaction, sequence (Q9NPC8 whole entry partner, looked up): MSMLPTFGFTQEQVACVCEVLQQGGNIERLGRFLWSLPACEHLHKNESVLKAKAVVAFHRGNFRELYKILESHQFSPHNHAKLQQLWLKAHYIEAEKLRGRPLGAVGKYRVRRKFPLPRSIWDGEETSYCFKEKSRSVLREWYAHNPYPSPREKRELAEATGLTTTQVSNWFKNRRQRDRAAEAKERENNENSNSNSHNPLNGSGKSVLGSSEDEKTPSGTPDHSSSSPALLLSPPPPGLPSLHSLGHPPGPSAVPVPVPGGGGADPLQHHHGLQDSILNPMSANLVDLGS
smiles,measurement,setting,value
CCc1oc2ccccc2c1C(=O)c1ccc(O)cc1 [Compound 1a],retinal vasculature branch points,"retinal vasculature; 100 μM injected into eyes at P0.5 and P3, P5 retinas",quantifiable decrease in branch points
same,retinal angiogenesis in VEC-specific Eya3 knockout model,retinal vasculature; normal oxygen conditions,additional significant reduction in retinal angiogenesis
same,IC50,Eya3(ED),19.2 µM
same,intersegmental vessels in zebrafish embryos,[1],"reduced the number of intersegmental vessels, but were less potent"
same,sprout length and microvascular density of aortic rings,mouse aortic rings,shorter sprouts and significantly lower microvascular density
"CCc1oc2ccccc2c1C(=O)c1cc(Br)c(O)c(Br)c1 [Compound 1, Benzbromarone, reference compound]",tumor growth,[2],able to reduce tumor growth
same,EYA3-SIX2 interaction in presence of inhibitor,EYA3-SIX2 interaction,unaffected
same,intersegmental vessels in zebrafish embryos,[1],significant reduction of intersegmental vessels
same,sprout length and microvascular density of aortic rings,mouse aortic rings,shorter sprouts and significantly lower microvascular density
